pEC50, pIC50: −log10 of the molar value. Like-named read-outs stand apart in the source and are kept apart here.

The nature of data set [1]: Metabolic stability in mouse liver microsomes. In kind it is in vitro ADME. The method, boiled down:
(§1)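 Parent compound was measured by LC-MS/MS at time zero and after 10, 30 and 90 min at 37 °C. Incubations used liver microsomes from four species (human, dog, rat, mouse) with an NADPH regenerating system in pH 7.4 potassium phosphate buffer. Each timepoint was stopped with cold quench solution.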
A general note: Microsomes from liver hold many membrane-bound enzymes, among them those of drug oxidation.

The target in data set [2] is T1, GHSR-1a (HEK293/GHSR1a cell line) (Homo sapiens, UniProt Q92847).
T1 construct: expressed in transfected cells; host or cells: HEK293/GHSR1a cell line
Kind of data set: Ghrelin antagonist potency (IC50) with calcium FLIPR assay, ghrelin 10 nM. It counts as cell-based. The method, boiled down: (§2)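 Calcium flux was followed 2 min by FLIPR in dye-loaded HEK293/GHSR1a cells. For antagonist IC50, compound and ghrelin (10 nM) were co-added at t=20 sec and inhibition of the ghrelin signal fitted; for agonist EC50, compound alone was added at t=20 sec and dose-response fitted.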

A short description of data set [3]: Metabolic stability in human liver microsomes. In kind it is in vitro ADME. The gist of the method: as §1
For data set [4], the target named is T2, recombinant human ghrelin receptor (HEK293/GRLN) (Homo sapiens, UniProt Q92847).
T2 construct: expressed in transfected cells
Kind of data set: Ghrelin inverse agonist potency (EC50) with IP-1 (IP-One HTRF) assay. It counts as cell-based. The conditions noted are these: IP-1 assay. The gist of the method: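 IP-1 accumulation was measured by HTRF (IP1-d2/Tb-cryptate, 620/665 nm read after 1 hour at room temperature) following 1 hour of compound treatment at 37° C. Cells were HEK293 stably expressing human ghrelin receptor, plated a day earlier on Matrigel. Inverse agonist potency was reported as EC50.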
Background: Time-resolved FRET reads energy transfer from a long-lived donor to a nearby acceptor.

Data set [5] has as its target T1, GHSR-1a (HEK293/GHSR1a cell line). Kind of data set: Ghrelin agonist potency (EC50) with calcium FLIPR assay. It counts as cell-based. The gist of the method:
as §2

[6] abbreviates: HEK293/GHSR1a, ghrelin 10 nM, read-out: Activity IC50 (ghrelin antagonist potency).
Setting [7] is: HEK293/GRLN, read-out: Activity EC50 (ghrelin inverse agonist potency).
[8] abbreviates: HEK293/GHSR1a, read-out: Activity EC50/EMax: EC50 (ghrelin agonist potency).
Setting [9] is: ghrelin antagonist potency, read-out: Activity IC50.
Setting [10] is: ghrelin inverse agonist potency, read-out: Activity EC50.
Setting [11] is: ghrelin agonist potency, read-out: Activity EC50/EMax.

T1 sequence (Q92847 whole entry): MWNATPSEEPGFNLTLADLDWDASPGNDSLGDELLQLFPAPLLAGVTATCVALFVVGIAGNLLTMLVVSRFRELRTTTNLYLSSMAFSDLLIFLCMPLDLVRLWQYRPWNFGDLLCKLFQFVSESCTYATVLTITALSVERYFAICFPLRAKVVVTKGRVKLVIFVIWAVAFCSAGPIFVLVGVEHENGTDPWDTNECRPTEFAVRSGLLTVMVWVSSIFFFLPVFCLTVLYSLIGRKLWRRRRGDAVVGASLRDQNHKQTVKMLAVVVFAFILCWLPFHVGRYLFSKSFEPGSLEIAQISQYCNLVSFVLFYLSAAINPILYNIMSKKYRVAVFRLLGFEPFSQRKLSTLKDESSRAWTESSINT
T2 sequence (Q92847 whole entry): as above

Broadly, the pIC50 is the IC50 on a negative log10 scale, so that one unit is a factor of ten. With `COc1ccccc1C(C)NC(=O)Nc1ccc(S(=O)(=O)Cc2ccc3c(c2)CNC3)cc1F.Cl` (stereo not drawn) [H1390, 1-(2-fluoro-4-((isoindolin-5-ylmethyl)sulfonyl)phenyl)-3-(1-(2-methoxyphenyl)ethyl)urea], in data set [1], the “Metabolic Stability Study M = mouse” value was 55.9 µL/min/mg. For the same compound, the pIC50 in data set [2] (setting [6]) is 7.44. For the same compound, in data set [3], the “Metabolic Stability Study H = human” value was found to be 34.6 µL/min/mg. Further, the pEC50 was 7.97 in data set [4] (setting [7]) and < 4.52 in data set [5] (setting [8]).
On to `C[C@@H](NC(=O)Nc1ccc(S(=O)(=O)Nc2ccnc(N)n2)cc1)c1cccc(Cl)c1Cl` [H1364, (R)-N-(2-aminopyrimidin-4-yl)-4-(3-(1-(2,3-dichlorophenyl)ethyl)ureido) benzenesulfonamide], for which, in data set [1], the “Metabolic Stability Study M = mouse” value is 36 µL/min/mg. Further, the pIC50 in data set [2] (setting [6]) was 7.53. Moreover, the “Metabolic Stability Study H = human” value in data set [3] is < 10 µL/min/mg. The pEC50 was 6.89 in data set [4] (setting [7]) and < 4.52 in data set [5] (setting [8]).
As for `COc1cc(S(=O)(=O)Cc2ccc3c(c2)CC(C)N(C)C3)ccc1NC(=O)NC(C)c1cccc(Cl)c1Cl` (stereo not drawn) [H1431, 1-(1-(2,3-dichlorophenyl)ethyl)-3-(4-(((2,3-dimethyl-1,2,3,4-tetrahydroisoquinolin-6-yl)methyl)sulfonyl)-2-methoxyphenyl)urea], in data set [1], the “Metabolic Stability Study M = mouse” value came out at 135.7 µL/min/mg. In data set [2] (setting [6]), the pIC50 is 8.34. Further, in data set [3], the “Metabolic Stability Study H = human” value amounted to 99.7 µL/min/mg. Also, the pEC50 in data set [4] (setting [7]) was 9.18; in data set [5] (setting [8]) it was < 4.52.
The matching figures for `COCCN1Cc2ccc(CS(=O)(=O)c3ccc(NC(=O)NC(C)c4ccccc4)cc3)cc2C1` (stereo not drawn) [H1338, 1-(4-(((2-(2-methoxyethyl)isoindolin-5-yl)methyl)sulfonyl)phenyl)-3-(1-phenylethyl)urea]: 242.1 µL/min/mg, 8.12, 106.9 µL/min/mg, 8.19 and < 4.52.
As to `COc1cc(NC(=O)N(O)C(C)c2ccccc2)ccc1S(=O)(=O)Cc1ccc2c(c1)CN(C)C2` (stereo not drawn) [H1516, 1-hydroxy-3-(3-methoxy-4-(((2-methylisoindolin-5-yl)methyl)sulfonyl)phenyl)-1-(1-phenylethyl)urea], in data set [1], the “Metabolic Stability Study M = mouse” value was 35.1 µL/min/mg. In addition, the pIC50 in data set [2] (setting [9]) is 7.47. For the same compound, the “Metabolic Stability Study H = human” value in data set [3] was found to be 65.2 µL/min/mg. The values for the pEC50 in data set [4] (setting [10]) and in data set [5] (setting [11]) were 7.95 and < 4.52, respectively.
With `C[C@H](NC(=O)Nc1ccc(S(=O)(=O)Cc2ccc3c(c2)CCNCC3)cc1)c1ccccc1` [H1306, (S)-1-(1-phenylethyl)-3-(4-(((2,3,4,5-tetrahydro-1H-benzo[d]azepin-7-yl)methyl)sulfonyl)phenyl)urea], the “Metabolic Stability Study M = mouse” value in data set [1] was found to be 19.6 µL/min/mg. In addition, the pIC50 in data set [2] (setting [6]) is 7.21. In addition, the “Metabolic Stability Study H = human” value in data set [3] is 31.2 µL/min/mg. The pEC50 is 7.13 in data set [4] (setting [7]) and < 4.52 in data set [5] (setting [8]).
In the case of `C[C@@H](NC(=O)Nc1ccc(S(=O)(=O)Cc2ccc3c(c2)CCN(C)C3)cc1)c1cccc(Cl)c1Cl` [H1343, (R)-1-(1-(2,3-dichlorophenyl)ethyl)-3-(4-(((2-methyl-1,2,3,4-tetrahydroisoquinolin-6-yl)methyl)sulfonyl)phenyl)urea], the “Metabolic Stability Study M = mouse” value in data set [1] stood at 252.4 µL/min/mg. Also, the pIC50 in data set [2] (setting [6]) was 8.28. In addition, in data set [3], the “Metabolic Stability Study H = human” value worked out at 71.9 µL/min/mg. Further, the pEC50 in data set [4] (setting [7]) is 8.68; in data set [5] (setting [8]), < 4.52.
For the compound `COc1cc(S(=O)(=O)Cc2ccc3c(c2)CN(C)C3)ccc1NC(=O)N(O)C(C)c1ccccc1` (stereo not drawn) [H1518, 1-hydroxy-3-(2-methoxy-4-(((2-methylisoindolin-5-yl)methyl)sulfonyl)phenyl)-1-(1-phenylethyl)urea], in data set [1], the “Metabolic Stability Study M = mouse” value is 154.7 µL/min/mg. Besides, the pIC50 in data set [2] (setting [9]) is 7.56. In addition, the “Metabolic Stability Study H = human” value in data set [3] stood at 151.1 µL/min/mg. In addition, the pEC50 in data set [4] (setting [10]) was 8.11; in data set [5] (setting [11]) it was < 4.52.
`CC(NC(=O)Nc1ccc(S(=O)(=O)Cc2ccc3c(c2)CN(C2CCOC2)C3)cc1)c1ccccc1.O=C(O)C(F)(F)F` (stereo not drawn) [H1340, 1-(1-phenylethyl)-3-(4-(((2-(tetrahydrofuran-3-yl)isoindolin-5-yl)methyl)sulfonyl)phenyl)urea]: the “Metabolic Stability Study M = mouse” value in data set [1] was > 500 µL/min/mg. The pIC50 in data set [2] (setting [6]) was 8.33. Also, the “Metabolic Stability Study H = human” value in data set [3] stood at 282.4 µL/min/mg. Further, the pEC50 is 8.48 in data set [4] (setting [7]) and < 4.52 in data set [5] (setting [8]).
The matching figures for `COc1cc(S(=O)(=O)Cc2ccc3c(c2)CCN(C)C3)ccc1NC(=O)NC(C)c1ccccc1` (stereo not drawn) [H1387, 1-(2-methoxy-4-(((2-methyl-1,2,3,4-tetrahydroisoquinolin-6-yl)methyl)sulfonyl)phenyl)-3-(1-phenylethyl)urea]: 167.5 µL/min/mg, 8.13, 86.7 µL/min/mg, 8.43 and < 4.52.
Taken in the same sequence, the figures for `CC(NC(=O)Nc1ccc(S(=O)(=O)Cc2ccc3c(c2)CCN(C)C3)cc1)c1ccccc1F` (stereo not drawn) [H1342, 1-(1-(2-fluorophenyl)ethyl)-3-(4-(((2-methyl-1,2,3,4-tetrahydroisoquinolin-6-yl)methyl)sulfonyl)phenyl)urea] were 118.4 µL/min/mg, 7.76, 80.1 µL/min/mg, 8.10 and < 4.52.
Taken in the same sequence, the figures for `CC(NC(=O)Nc1ccc(S(=O)(=O)Cc2ccc3c(c2)CNC3)cc1F)c1ccccc1F.Cl` (stereo not drawn) [H1389, 1-(2-fluoro-4-((isoindolin-5-ylmethyl)sulfonyl)phenyl)-3-(1-(2-fluorophenyl)ethyl)urea] were 21.2 µL/min/mg, 7.56, 21.3 µL/min/mg, 7.82 and < 4.52.
As for `COC(=O)c1cc(NC(=O)NC(C)c2ccccc2)ccc1S(=O)(=O)Cc1ccc2c(c1)CNC2` (stereo not drawn) [H1505, methyl 2-((isoindolin-5-ylmethyl)sulfonyl)-5-(3-(1-phenylethyl)ureido)benzoate], in data set [1], the “Metabolic Stability Study M = mouse” value stood at 135.5 µL/min/mg. Further, the pIC50 in data set [2] (setting [9]) was 8.08. Besides, the “Metabolic Stability Study H = human” value in data set [3] turned out to be 37.3 µL/min/mg. Moreover, the values for the pEC50 in data set [4] (setting [10]) and in data set [5] (setting [11]) were 7.93 and < 4.52, respectively.
With `COc1cc(S(=O)(=O)Cc2ccc3c(c2)CN(C)C3)ccc1NC(=O)NC(C)c1cccc2ccccc12` (stereo not drawn) [H1425, 1-(2-methoxy-4-(((2-methylisoindolin-5-yl)methyl)sulfonyl)phenyl)-3-(1-(naphthalen-1-yl)ethyl)urea], the “Metabolic Stability Study M = mouse” value in data set [1] was 141.5 µL/min/mg. For the same compound, in data set [2] (setting [6]), the pIC50 is 8.09. Moreover, in data set [3], the “Metabolic Stability Study H = human” value amounted to 310.0 µL/min/mg. Moreover, the pEC50 in data set [4] (setting [7]) was 8.74; in data set [5] (setting [8]), < 4.52.
Turning to `CN1Cc2ccc(CS(=O)(=O)c3ccc(NC(=O)NC4CCCc5ccccc54)cc3)cc2C1` (stereo not drawn) [H1312, 1-(4-(((2-methylisoindolin-5-yl)methyl)sulfonyl)phenyl)-3-(1,2,3,4-tetrahydronaphthalen-1-yl)urea], the “Metabolic Stability Study M = mouse” value in data set [1] worked out at 117.5 µL/min/mg. In addition, the pIC50 in data set [2] (setting [6]) was 7.16. Moreover, the “Metabolic Stability Study H = human” value in data set [3] was 93.5 µL/min/mg. The results for the pEC50 in data set [4] (setting [7]) and in data set [5] (setting [8]) were 7.07 and < 4.52, respectively.
Consider `C[C@@H](NC(=O)Nc1ccc(S(=O)(=O)Cc2ccc3c(c2)C(F)CNC3)cc1)c1cccc(Cl)c1Cl` (stereo partly drawn) [H1537, 1-((R)-1-(2,3-dichlorophenyl)ethyl)-3-(4-(((4-fluoro-1,2,3,4-tetrahydroisoquinolin-6-yl)methyl)sulfonyl)phenyl)urea], for which the “Metabolic Stability Study M = mouse” value in data set [1] amounted to 135.3 µL/min/mg. The pIC50 in data set [2] (setting [9]) was 7.16. Besides, the “Metabolic Stability Study H = human” value in data set [3] was 43.2 µL/min/mg. Further, the values for the pEC50 in data set [4] (setting [10]) and in data set [5] (setting [11]) were 7.74 and < 4.52, respectively.
Taken in the same sequence, the figures for `CC(c1cccc(Cl)c1Cl)N(O)C(=O)Nc1ccc(S(=O)(=O)Cc2ccc3c(c2)CNC3)cc1.O=C(O)C(F)(F)F` (stereo not drawn) [H1509, 1-(1-(2,3-dichlorophenyl)ethyl)-1-hydroxy-3-(4-((isoindolin-5-ylmethyl)sulfonyl)phenyl)urea] were 16.0 µL/min/mg, 9.47, 15.9 µL/min/mg, 9.00 and < 4.52.
Take `CC(NC(=O)Nc1ccc(S(=O)(=O)Nc2ccc3c(c2)CN(C)C3)cc1)c1ccccc1` (stereo not drawn) [H1308, N-(2-methylisoindolin-5-yl)-4-(3-(1-phenylethyl)ureido) benzenesulfonamide]: the “Metabolic Stability Study M = mouse” value in data set [1] amounted to 38.5 µL/min/mg. Also, the pIC50 in data set [2] (setting [6]) was 7.63. For the same compound, in data set [3], the “Metabolic Stability Study H = human” value stood at 49.4 µL/min/mg. Also, the pEC50 in data set [4] (setting [7]) is 7.51; in data set [5] (setting [8]), < 4.52.

These data come from patent US10501479B2, “Benzenesulfonyl-asymmetric ureas and medical uses thereof” (HELSINN HEALTHCARE SA, priority 2016, dated 2019).
